Consider 1 molecule from US8431715B2, “Thiazole compound (as PPARδ) ligand and pharmaceutical, cosmetic and health food comprised thereof” (Seoul National University Industry Foundation, priority 2007, dated 2013).

For one data set, the system named is CV-1 cells. In words: MTT assay, cytotoxicity. The format is cell-based. The conditions noted are these: 24 hours, even at the concentration of 100,000 times the EC50 value. How it is done: MTT assay was performed to test cytotoxicity of the compounds of the present invention. MTT is a yellow substance soluble in water, but when it is introduced into a living cell, it turns into a purple insoluble crystal by dehydrogenase in mitochondria. Cytotoxicity can be confirmed by measuring OD550 after dissolving MTT in dimethylsulfoxide. The experiment was performed as follows.
CV-1 cells were inoculated in a 96-well plate (5000 cells/well). The cells were cultured in a 37[…] 5% CO2 incubator for 24 hours, and treated with the compounds of formula 1 and formula 2 at different concentrations. Then, the cells were cultured for 24 hours again, to which MTT reagent was added. After culturing for 15 minutes, the generated purple crystals were dissolved in dimethylsulfoxide. Optical density was measured with a microplate reader to confirm cytotoxicity.

The subject of data set [1] is mice. In words: GTT (glucose tolerance test), diabetes improving effect. The format is in vivo. The settings on record: oral pre-treatment 78 days. As to the method: GTT (glucose tolerance test) was performed to confirm the diabetes improving effect of the compound of the present invention. Glucose (1.5 g/Kg) was intra-abdominally administered to the mice pre-treated orally with samples for 78 days. Blood glucose was measured every hour. Fasting blood glucose was lower in the group treated with the compound of the present invention than in the group treated with vehicle or GW501516.

Another data set relates to ApoE−/− mouse. In words: Arteriosclerosis inhibiting effect, Sudan IV plaque staining. Type of data set: in vivo. The conditions noted are these: 2 mg/kg/day oral, high fat high cholesterol feeds, 28 days. As to the method: In vivo animal test using ApoE−/− mouse, which is an animal model for arteriosclerosis, was performed to confirm the arteriosclerosis inhibiting effect of the compound of the present invention. The animals were orally administered with 2 mg/kg/day of the compound of formula 1 of the present invention while feeding with high fat, high cholesterol feeds (20% fat, 1.25% cholesterol; AIN-93G diet). 28 days later, plaque staining was performed over the whole artery using Sudan IV to investigate the arteriosclerosis inhibiting effect of the compound by comparing the results between experimental and control groups. As a result, arteriosclerosis was 30% inhibited in ApoE−/− mouse treated with the compound of formula 1 of the present invention, compared with the control.

Data set [2] has as its system mice. The experiment in a line: Muscle endurance test, treatment during pregnancy and/or lactation, treadmill. The format is in vivo. As to the method:
An animal test was performed to confirm muscle endurance strengthening and muscle function enhancing effect of the compound of the present invention. Most muscles are generated in the developmental stage. Thus, the compound of formula 1 (10 mg/Kg/day) were orally administered to pregnant mice in the period of either pregnancy or lactation or both pregnancy and lactation. […] Muscles were observed after removing skin. As a result, muscles of the treatment group were red, unlike the controlled one. ATPase staining and immunostaining were performed. As a result, type I muscle fiber was increased in the group treated with the compound of formula 1. The effect of the changes of the muscle fiber on the enhancement of muscle endurance and muscle function was investigated by using treadmill test. As a result, running time was much extended in the group treated with the compound of formula 1.

The test system of a further data set is C57BL/6 mice. In words: Muscle endurance test in adults with exercise, treadmill. The conditions noted are these: 10 mg/kg oral, mice at 10 weeks, treadmill exercise 30 days. Type of data set: in vivo. How it is done: Particularly, the compound of formula 1 was orally administered to C57BL/6 mice at 10 weeks at the concentration of 10 mg/kg, during which the mice were forced to exercise. The exercise was performed with treadmill for […] once a day for 30 days, precisely at the speed of 2 meter/min for the first 5 minutes, at 5 meter/min for 5 minutes, at 8 meter/min for 5 minutes and at 20 meter/min for the last 5 minutes. At the finish, muscle endurance and muscle function enhancing effect was tested by using treadmill. As a result, the time (1.5 fold) and distance (1.6 fold) of exercise were all increased in the group treated with the compound of the present invention, when compared with the control.

In another data set the target is T1, PPARδ (Homo sapiens, UniProt Q03181).
T1 sequence (Q03181 1-441): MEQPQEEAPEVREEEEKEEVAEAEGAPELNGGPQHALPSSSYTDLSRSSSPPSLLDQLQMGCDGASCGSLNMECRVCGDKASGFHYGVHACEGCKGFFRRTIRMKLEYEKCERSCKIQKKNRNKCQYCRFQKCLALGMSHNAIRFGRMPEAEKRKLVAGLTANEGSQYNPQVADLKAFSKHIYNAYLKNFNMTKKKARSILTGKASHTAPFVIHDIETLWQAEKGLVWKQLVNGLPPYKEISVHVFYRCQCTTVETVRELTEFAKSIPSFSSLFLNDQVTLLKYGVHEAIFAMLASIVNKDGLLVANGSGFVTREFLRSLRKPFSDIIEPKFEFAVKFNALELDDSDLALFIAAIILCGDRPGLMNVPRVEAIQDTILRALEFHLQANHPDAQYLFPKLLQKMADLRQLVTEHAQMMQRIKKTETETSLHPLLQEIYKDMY
In words: Transfection assay (luciferase reporter) in CV-1 cells, PPARδ. The format is cell-based. Also on record: Full length PPARs plasmid DNA, reporter DNA confirming PPARs activity owing to its luciferase activity; expressed in transfected cells; host or cells: CV-1 cells. As to the method: The PPARδ activities of the R-form compound represented by formula 1 of the present invention and the S-form compound represented by formula 2 were measured by transfection assay. In addition, the selectivity to PPAR subtypes, PPARα and PPARγ, was examined. Cytotoxicity was tested by MTT assay and in vivo activity and toxicity was investigated by animal experiment using mice.
CV-1 cells were used in this assay. The cells were inoculated in a 96-well plate containing DMEM supplemented with 10% FBS, DBS (delipidated) and 1% penicillin/streptomycin and cultured in a 37 °C, 5% CO2 incubator. The experiment was performed according to the steps of inoculation, transfection, sample treatment and confirmation. Particularly, CV-1 cells were inoculated in a 96 well-plate (5000 cells/well), followed by transfection 24 hours later. Full length PPARs plasmid DNA, reporter DNA confirming PPARs activity owing to its luciferase activity, β-galactosidase DNA providing information on transfection efficiency, and transfection reagent were used for the transfection. The compounds of formula 1 and formula 2 were dissolved in dimethylsulfoxide (DMSO), which were treated to the cells via media at different concentrations. After culturing the cells in the incubator for 24 hours, the cells were lysed by using lysis buffer. Luciferase activity and β-galactosidaseactivity were measured with Luminometer and a microplate reader. The obtained values of luciferase were modified by the values of β-galactosidase. A graph was made with those values and EC50 was calculated.

Setting [3] is: 10 mg/Kg/day oral to pregnant mice.
Setting [4] is: 10 mg/Kg/day oral to pregnant mice, pregnancy.
Where [5] appears, read: 10 mg/Kg/day oral, Pregnancy + lactation.

Consider `Cc1cc(S[C@H](Cc2ccccc2)c2sc(-c3ccc(C(F)(F)F)cc3)nc2C)ccc1OCC(=O)O` (racemic) [formula 1], for which the cytotoxicity entry in the data set on CV-1 cells is given as “not to have cytotoxicity”. In the data set with mice [1] (glucose 1.5 g/Kg intra-abdominal), the “time of rapid blood glucose decrease” value was 20 to 40 min. Further, the fasting blood glucose result with mice [1] (compared with vehicle or GW501516 group) is “lower”. Moreover, the “arteriosclerosis inhibition compared with the control” value with ApoE−/− mouse is listed as 30%. In addition, in the data set on mice [2] (setting [3]), the “muscle colour after removing skin” value is listed as “red”; the “weight gain and growth rate of fetuses versus control” value is on record as “not much different”. Also, in the data set with mice [2] (setting [4]), the “Increasing rate (treatment group/control group), length” value was determined as 2.4 times and the “Increasing rate (treatment group/control group), time” value turned out to be 2.3 times. In the data set with mice [2] (setting [5]), the “Increasing rate (treatment group/control group), length” value was 3.0 times and the “Increasing rate (treatment group/control group), time” value was 2.9 times. In the data set with mice [2] (10 mg/Kg/day oral, lactation), the “Increasing rate (treatment group/control group), length” value is 2.2 times and the “Increasing rate (treatment group/control group), time” value is 2.1 times. Further, in the data set with mice [2] (ATPase staining and immunostaining), the “type I muscle fiber” value is given as “increased”. Moreover, the running time entry in the data set on mice [2] (treadmill test) is on record as “much extended”. For the same molecule, in the data set with C57BL/6 mice, the “distance of exercise compared with the control” value stood at 1.6 fold and the “time of exercise compared with the control” value was determined as 1.5 fold. The same molecule displayed an EC50 on PPARδ (CV-1 cells, 24 hours treatment) of 600 pM. The “activity of R-isomer compared with S-isomer (formula 2)” value on PPARδ (PPARδ) was determined as 10 times. Moreover, the “selectivity to PPARα and PPARγ” value on PPARδ (PPARδ versus PPARα and PPARγ) was 100,000 times.
